Read-outs that look alike come from different tables or passages of the source.
Experiments:
[1] = target: Bcl-2 recombinant His-fused soluble protein (Homo sapiens, UniProt P10415); test: Bcl-2 fluorescence polarization-based competitive binding assay (Flu-Bid-21 peptide); settings: for Ki: FP assay, 0.120 μM Bcl-2, 0.010 μM Flu-Bid-21, 4 hours incubation, Ki calculated from IC50, read-out: Binding Affinity Ki (μM) Bc1-2; for fold decrease of binding affinity to Bcl-2: relative to the parent analogue (15c, 15d compared with 15b; 15j: removal of the big hydrophobic group)
2LMP breast cancer cells = test: Cell growth inhibition, MTT, 2LMP breast cancer cells; assay type: cell-based, human; settings: for IC50: Homo sapiens, 120 h, 5 days incubation, MTT cell viability, read-out: Cellular Activity IC50 (μM) 2LMP
Experimental: (§1) To test the effect of compounds of the present invention on inhibition of cell growth in human cancer cells, the compounds were administered to two different cancer cell lines. PC-3 prostate cancer cells and 2LMP breast cancer cells were each seeded in 96-well plates with increasing concentrations of inhibitor compounds. The cells were then incubated at 37° C. with 5% CO2 for 5 days, followed by detection of cell viability with MTT. Untreated cells were used as 100% growth.

[2] = system: PC-3 prostate cancer cells; test: Cell growth inhibition, MTT, PC-3 prostate cancer cells; assay type: cell-based, human; settings: for IC50: Homo sapiens, 120 h, 5 days incubation, MTT cell viability, read-out: Cellular Activity IC50 (μM) PC3
Experimental: as §1

[3] = target: T1, human Bcl-xL recombinant His-tagged protein (Homo sapiens, UniProt Q07817); test: Bcl-xL fluorescence polarization-based competitive binding assay (Flu-Bak peptide); settings: for Ki: FP assay, 60 nM Bcl-xL, 5 nM Flu-Bak peptide, Ki calculated from IC50; for fold decrease of binding affinity to Bcl-xL: relative to the parent analogue (15d compared with 15b; 15j: removal of the big hydrophobic group)
T1 construct: without the C-terminus hydrophobic tail; His

[4] = read-out: Binding Affinity Ki (μM) Bc1-xL

Chain of Bcl-2 recombinant His-fused soluble protein (P10415 whole entry, the tested form may be a part): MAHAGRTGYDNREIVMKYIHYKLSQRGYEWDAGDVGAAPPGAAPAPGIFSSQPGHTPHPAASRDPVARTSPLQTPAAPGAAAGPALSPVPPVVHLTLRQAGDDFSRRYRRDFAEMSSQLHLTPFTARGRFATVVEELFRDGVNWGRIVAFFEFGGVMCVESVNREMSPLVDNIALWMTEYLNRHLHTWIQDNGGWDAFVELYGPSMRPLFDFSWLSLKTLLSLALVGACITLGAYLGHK
T1 sequence (Q07817 1-209 limits assumed): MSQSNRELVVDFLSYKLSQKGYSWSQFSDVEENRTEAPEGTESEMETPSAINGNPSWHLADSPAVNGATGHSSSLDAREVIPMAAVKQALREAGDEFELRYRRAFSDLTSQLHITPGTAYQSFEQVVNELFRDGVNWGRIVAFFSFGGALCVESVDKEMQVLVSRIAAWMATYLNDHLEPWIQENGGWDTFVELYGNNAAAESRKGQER

Compound: Cc1cc(=O)c2c(O)c(O)c(O)c(CC(C)C)c2o1 [Compound 15j, 5,6,7-Trihydroxy-8-isobutyl-2-methyl-chromen-4-one]
- Ki [1]: 4.63 ± 0.16 µM
- fold decrease of binding affinity to Bcl-2 [1]: > 50 fold
- IC50 (2LMP breast cancer cells): > 30 µM
- IC50 [2]: 20.1 µM
- Ki [3, 4]: > 14 µM
- fold decrease of binding affinity to Bcl-xL [3]: more than 10 fold

Compound: COc1c(OC)c(OC)c2c(=O)c(-c3ccc4cc(O)ccc4c3)c(C)oc2c1CC(C)C [Compound 15d, 3-(6-Hydroxy-naphthalen-2-yl)-8-isobutyl-5,6,7-trimethoxy-2-methyl-chromen-4-one]
- Ki [1]: 1.24 ± 0.13 µM
- fold decrease of binding affinity to Bcl-2 [1]: more than 10 fold
- IC50 (2LMP breast cancer cells): > 30 µM
- IC50 [2]: 20.6 µM
- Ki [3, 4]: > 14 µM
- fold decrease of binding affinity to Bcl-xL [3]: more than 10 fold

Compound: Cc1cc2c(C(C)C)c(O)c(O)c(C=O)c2c(O)c1-c1c(C)cc2c(C(C)C)c(O)c(O)c(C=O)c2c1O [gossypol, reference compound]
- IC50 (2LMP breast cancer cells): 6 µM
- IC50 [2]: 9.7 µM
- Ki ([3]; Binding Affinity Ki (μM) Bc1-xL): 1.97 ± 0.39 µM

Compound: Cc1oc2c(CC(C)C)c(O)c(O)c(O)c2c(=O)c1-c1ccc2cc(O)ccc2c1 [Compound 15b, 5,6,7-Trihydroxy-3-(6-hydroxy-naphthalen-2-yl)-8-isobutyl-2-methyl-chromen-4-one]
- Ki [1]: 0.17 ± 0.02 µM
- IC50 (2LMP breast cancer cells): 2.55 µM
- IC50 [2]: 5.07 µM
- Ki [3, 4]: 1.71 ± 0.22 µM

Compound: Cc1oc2c(CC(C)C)c(O)c(O)c(O)c2c(=O)c1-c1ccc2c(C(C)C)c(O)ccc2c1 [Compound 2, 5,6,7-Trihydroxy-3-(6-hydroxy-5-isopropyl-naphthalen-2-yl)-8-isobutyl-2-methyl-chromen-4-one]
- Ki [1]: 0.088 µM
- IC50 (2LMP breast cancer cells): 1.54 µM
- fold more potent than gossypol, cell growth inhibitory activity, 2LMP (2LMP breast cancer cells; relative to gossypol): 3 to 4 fold
- IC50 [2]: 1.82 µM
- fold more potent than gossypol, cell growth inhibitory activity, PC3 ([2]; relative to gossypol): 3 to 4 fold
- Ki [3, 4]: 1.49 µM

Compound: Cc1oc2c(CC(C)C)c(O)c(O)c(O)c2c(=O)c1-c1ccc2c(C)c(O)ccc2c1 [Compound 15a, 5,6,7-Trihydroxy-3-(6-hydroxy-5-methyl-naphthalen-2-yl)-8-isobutyl-2-methyl-chromen-4-one]
- Ki [1]: 0.13 ± 0.01 µM
- IC50 (2LMP breast cancer cells): 1.44 µM
- IC50 [2]: 3.09 µM
- Ki [3, 4]: 1.78 ± 0.13 µM

Compound: Cc1oc2c(CC(C)C)c(O)c(O)c(O)c2c(=O)c1-c1ccc2ccccc2c1 [Compound 15c, 5,6,7-Trihydroxy-8-isobutyl-2-methyl-3-naphthalen-2-yl-chromen-4-one]
- Ki [1]: 0.39 ± 0.17 µM
- fold decrease of binding affinity to Bcl-2 [1]: about 2 fold
- IC50 (2LMP breast cancer cells): 2.08 µM
- IC50 [2]: 3.62 µM
- Ki [3, 4]: 2.32 ± 0.26 µM

Compound: Cc1oc2c(CC(C)C)c(O)c(O)c(O)c2c(=O)c1-c1ccccc1 [Compound 15f, 5,6,7-Trihydroxy-8-isobutyl-2-methyl-3-phenyl-chromen-4-one]
- Ki [1]: 0.79 ± 0.03 µM
- IC50 (2LMP breast cancer cells): 9.3 µM
- IC50 [2]: 23.7 µM
- Ki [3, 4]: 4.27 ± 0.84 µM

Compound: CCOc1ccc2cc(-c3c(C)oc4c(CC(C)C)c(OC)c(OC)c(OC)c4c3=O)ccc2c1 [Compound 15e, 3-(6-Ethoxy-naphthalen-2-yl)-8-isobutyl-5,6,7-trimethoxy-2-methyl-chromen-4-one]
- Ki [1]: > 12 µM
- Ki [3, 4]: > 14 µM
